Columns and labels:
Assay in all cases: KINOMEscan competition binding
Conditions in all cases: compound 10.0 µM
[1] = molecular target: ALK (human) (UniProt Q9UM73)
[2] = molecular target: ANKK1 (human) (UniProt Q8NFD2)
[3] = molecular target: AURKB (human) (UniProt Q96GD4)
[4] = molecular target: CAMK1D (human) (UniProt Q8IU85)
[5] = molecular target: CLK4 (human) (UniProt Q9HAZ1)
[6] = molecular target: CSNK2A2 (human) (UniProt P19784)
[7] = molecular target: DCLK2 (human) (UniProt Q8N568)
[8] = molecular target: DYRK1B (human) (UniProt Q9Y463)
[9] = molecular target: EPHA7 (human) (UniProt Q15375)
[10] = molecular target: EPHB3 (human) (UniProt P54753)
[11] = molecular target: FLT3 (human) (UniProt P36888)
[12] = test system: FLT3 (human), P36888 [ITD]
[13] = test system: FLT3 (human), P36888 [N841I]
[14] = molecular target: HIPK1 (human) (UniProt Q86Z02)
[15] = molecular target: KDR (human) (UniProt P35968)
[16] = molecular target: LATS1 (human) (UniProt O95835)
[17] = molecular target: MAP4K5 (human) (UniProt Q9Y4K4)
[18] = molecular target: MAPK11 (human) (UniProt Q15759)
[19] = molecular target: MAPK13 (human) (UniProt O15264)
[20] = molecular target: MARK2 (human) (UniProt Q7KZI7)
[21] = molecular target: MKNK1 (human) (UniProt Q9BUB5)
[22] = molecular target: MYLK2 (human) (UniProt Q9H1R3)
[23] = molecular target: NEK1 (human) (UniProt Q96PY6)
[24] = molecular target: PAK2 (human) (UniProt Q13177)
[25] = molecular target: PIP4K2B (human) (UniProt P78356)
[26] = molecular target: PLK1 (human) (UniProt P53350)
[27] = molecular target: PRKAA1 (human) (UniProt Q13131)
[28] = molecular target: PRKCE (human) (UniProt Q02156)
[29] = molecular target: PRKG1 (human) (UniProt Q13976)
[30] = molecular target: PRKX (human) (UniProt P51817)
[31] = molecular target: PTK6 (human) (UniProt Q13882)
[32] = molecular target: RIOK2 (human) (UniProt Q9BVS4)
[33] = molecular target: ROS1 (human) (UniProt P08922)
[34] = molecular target: RPS6KA5 KD1 (human) (UniProt O75582)
[35] = molecular target: RPS6KA5 KD2 (human) (UniProt O75582)
[36] = molecular target: STK17B (human) (UniProt O94768)
[37] = molecular target: STK38L (human) (UniProt Q9Y2H1)
[38] = molecular target: TAOK1 (human) (UniProt Q7L7X3)
[39] = molecular target: TLK2 (human) (UniProt Q86UE8)
[40] = molecular target: TYRO3 (human) (UniProt Q06418)

Sequence of ALK (human) (Q9UM73 whole entry, looked up): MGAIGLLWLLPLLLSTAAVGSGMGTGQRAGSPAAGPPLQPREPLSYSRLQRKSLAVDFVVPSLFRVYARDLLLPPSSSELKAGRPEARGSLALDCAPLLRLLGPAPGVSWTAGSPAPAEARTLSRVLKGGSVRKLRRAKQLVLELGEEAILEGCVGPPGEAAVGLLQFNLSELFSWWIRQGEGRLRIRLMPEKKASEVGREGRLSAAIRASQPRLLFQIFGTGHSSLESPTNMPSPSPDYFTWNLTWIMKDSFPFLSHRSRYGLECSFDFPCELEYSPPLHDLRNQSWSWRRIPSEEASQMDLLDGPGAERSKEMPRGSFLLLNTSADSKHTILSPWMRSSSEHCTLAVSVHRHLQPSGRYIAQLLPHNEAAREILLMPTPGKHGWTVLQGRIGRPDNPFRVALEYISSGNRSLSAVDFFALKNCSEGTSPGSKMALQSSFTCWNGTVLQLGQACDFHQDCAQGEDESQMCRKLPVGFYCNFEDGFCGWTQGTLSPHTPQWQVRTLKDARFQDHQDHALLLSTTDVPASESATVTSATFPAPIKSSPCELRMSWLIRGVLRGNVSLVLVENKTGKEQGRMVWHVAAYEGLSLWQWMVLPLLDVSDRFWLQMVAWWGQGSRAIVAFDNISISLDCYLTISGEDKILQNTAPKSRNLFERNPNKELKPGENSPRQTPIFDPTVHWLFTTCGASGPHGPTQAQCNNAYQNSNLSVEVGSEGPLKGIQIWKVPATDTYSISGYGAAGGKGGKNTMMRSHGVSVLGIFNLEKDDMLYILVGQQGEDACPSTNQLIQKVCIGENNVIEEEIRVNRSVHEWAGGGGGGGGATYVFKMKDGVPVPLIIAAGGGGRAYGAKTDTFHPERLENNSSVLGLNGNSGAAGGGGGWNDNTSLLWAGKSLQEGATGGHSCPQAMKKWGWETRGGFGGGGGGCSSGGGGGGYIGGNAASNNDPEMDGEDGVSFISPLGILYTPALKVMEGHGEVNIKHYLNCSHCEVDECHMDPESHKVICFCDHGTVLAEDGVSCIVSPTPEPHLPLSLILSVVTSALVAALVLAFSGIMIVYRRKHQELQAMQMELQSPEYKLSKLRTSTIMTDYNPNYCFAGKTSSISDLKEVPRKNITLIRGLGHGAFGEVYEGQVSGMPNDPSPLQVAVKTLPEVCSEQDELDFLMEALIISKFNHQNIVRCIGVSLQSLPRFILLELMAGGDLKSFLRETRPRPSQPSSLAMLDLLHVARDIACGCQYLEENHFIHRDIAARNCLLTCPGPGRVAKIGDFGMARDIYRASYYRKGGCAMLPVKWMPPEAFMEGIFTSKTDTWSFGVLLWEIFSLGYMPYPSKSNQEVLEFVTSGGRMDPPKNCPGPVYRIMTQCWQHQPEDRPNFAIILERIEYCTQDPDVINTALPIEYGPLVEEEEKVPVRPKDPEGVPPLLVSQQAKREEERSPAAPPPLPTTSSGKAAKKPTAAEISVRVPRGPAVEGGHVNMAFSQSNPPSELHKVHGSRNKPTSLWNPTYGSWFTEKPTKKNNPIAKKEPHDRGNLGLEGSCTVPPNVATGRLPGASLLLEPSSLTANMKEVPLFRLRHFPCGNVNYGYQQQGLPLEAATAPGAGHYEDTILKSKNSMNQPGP
Sequence of ANKK1 (human) (Q8NFD2 whole entry, looked up): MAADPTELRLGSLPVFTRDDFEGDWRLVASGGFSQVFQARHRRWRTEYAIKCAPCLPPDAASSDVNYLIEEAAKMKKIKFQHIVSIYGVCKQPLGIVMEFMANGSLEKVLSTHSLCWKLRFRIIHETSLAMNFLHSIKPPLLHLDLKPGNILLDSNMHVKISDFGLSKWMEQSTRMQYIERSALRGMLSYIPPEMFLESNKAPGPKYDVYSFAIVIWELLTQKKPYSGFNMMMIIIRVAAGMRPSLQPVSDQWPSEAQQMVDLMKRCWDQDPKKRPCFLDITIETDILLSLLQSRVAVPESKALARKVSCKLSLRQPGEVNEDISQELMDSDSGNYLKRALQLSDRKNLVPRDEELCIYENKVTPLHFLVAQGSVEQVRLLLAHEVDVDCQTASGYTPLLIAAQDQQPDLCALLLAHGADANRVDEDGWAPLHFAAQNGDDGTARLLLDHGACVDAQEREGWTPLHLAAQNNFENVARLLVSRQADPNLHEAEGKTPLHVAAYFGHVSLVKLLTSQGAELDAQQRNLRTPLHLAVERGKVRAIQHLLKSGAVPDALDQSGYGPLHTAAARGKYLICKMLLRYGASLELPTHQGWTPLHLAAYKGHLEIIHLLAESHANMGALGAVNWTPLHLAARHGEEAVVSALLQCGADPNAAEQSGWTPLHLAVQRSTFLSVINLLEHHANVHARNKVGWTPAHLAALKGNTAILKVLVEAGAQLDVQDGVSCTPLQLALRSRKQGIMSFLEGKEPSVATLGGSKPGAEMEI
Sequence of CAMK1D (human) (Q8IU85 whole entry, looked up): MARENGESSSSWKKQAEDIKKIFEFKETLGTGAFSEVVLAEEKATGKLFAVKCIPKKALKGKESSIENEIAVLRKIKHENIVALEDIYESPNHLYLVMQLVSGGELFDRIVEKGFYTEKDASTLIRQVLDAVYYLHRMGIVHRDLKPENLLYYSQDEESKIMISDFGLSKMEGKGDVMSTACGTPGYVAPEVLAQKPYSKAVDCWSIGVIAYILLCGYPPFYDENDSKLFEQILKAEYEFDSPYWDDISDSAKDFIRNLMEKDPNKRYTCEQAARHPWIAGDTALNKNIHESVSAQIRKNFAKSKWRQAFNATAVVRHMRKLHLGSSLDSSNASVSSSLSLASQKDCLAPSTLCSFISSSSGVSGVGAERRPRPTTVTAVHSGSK
Sequence of ROS1 (human) (P08922 whole entry, looked up): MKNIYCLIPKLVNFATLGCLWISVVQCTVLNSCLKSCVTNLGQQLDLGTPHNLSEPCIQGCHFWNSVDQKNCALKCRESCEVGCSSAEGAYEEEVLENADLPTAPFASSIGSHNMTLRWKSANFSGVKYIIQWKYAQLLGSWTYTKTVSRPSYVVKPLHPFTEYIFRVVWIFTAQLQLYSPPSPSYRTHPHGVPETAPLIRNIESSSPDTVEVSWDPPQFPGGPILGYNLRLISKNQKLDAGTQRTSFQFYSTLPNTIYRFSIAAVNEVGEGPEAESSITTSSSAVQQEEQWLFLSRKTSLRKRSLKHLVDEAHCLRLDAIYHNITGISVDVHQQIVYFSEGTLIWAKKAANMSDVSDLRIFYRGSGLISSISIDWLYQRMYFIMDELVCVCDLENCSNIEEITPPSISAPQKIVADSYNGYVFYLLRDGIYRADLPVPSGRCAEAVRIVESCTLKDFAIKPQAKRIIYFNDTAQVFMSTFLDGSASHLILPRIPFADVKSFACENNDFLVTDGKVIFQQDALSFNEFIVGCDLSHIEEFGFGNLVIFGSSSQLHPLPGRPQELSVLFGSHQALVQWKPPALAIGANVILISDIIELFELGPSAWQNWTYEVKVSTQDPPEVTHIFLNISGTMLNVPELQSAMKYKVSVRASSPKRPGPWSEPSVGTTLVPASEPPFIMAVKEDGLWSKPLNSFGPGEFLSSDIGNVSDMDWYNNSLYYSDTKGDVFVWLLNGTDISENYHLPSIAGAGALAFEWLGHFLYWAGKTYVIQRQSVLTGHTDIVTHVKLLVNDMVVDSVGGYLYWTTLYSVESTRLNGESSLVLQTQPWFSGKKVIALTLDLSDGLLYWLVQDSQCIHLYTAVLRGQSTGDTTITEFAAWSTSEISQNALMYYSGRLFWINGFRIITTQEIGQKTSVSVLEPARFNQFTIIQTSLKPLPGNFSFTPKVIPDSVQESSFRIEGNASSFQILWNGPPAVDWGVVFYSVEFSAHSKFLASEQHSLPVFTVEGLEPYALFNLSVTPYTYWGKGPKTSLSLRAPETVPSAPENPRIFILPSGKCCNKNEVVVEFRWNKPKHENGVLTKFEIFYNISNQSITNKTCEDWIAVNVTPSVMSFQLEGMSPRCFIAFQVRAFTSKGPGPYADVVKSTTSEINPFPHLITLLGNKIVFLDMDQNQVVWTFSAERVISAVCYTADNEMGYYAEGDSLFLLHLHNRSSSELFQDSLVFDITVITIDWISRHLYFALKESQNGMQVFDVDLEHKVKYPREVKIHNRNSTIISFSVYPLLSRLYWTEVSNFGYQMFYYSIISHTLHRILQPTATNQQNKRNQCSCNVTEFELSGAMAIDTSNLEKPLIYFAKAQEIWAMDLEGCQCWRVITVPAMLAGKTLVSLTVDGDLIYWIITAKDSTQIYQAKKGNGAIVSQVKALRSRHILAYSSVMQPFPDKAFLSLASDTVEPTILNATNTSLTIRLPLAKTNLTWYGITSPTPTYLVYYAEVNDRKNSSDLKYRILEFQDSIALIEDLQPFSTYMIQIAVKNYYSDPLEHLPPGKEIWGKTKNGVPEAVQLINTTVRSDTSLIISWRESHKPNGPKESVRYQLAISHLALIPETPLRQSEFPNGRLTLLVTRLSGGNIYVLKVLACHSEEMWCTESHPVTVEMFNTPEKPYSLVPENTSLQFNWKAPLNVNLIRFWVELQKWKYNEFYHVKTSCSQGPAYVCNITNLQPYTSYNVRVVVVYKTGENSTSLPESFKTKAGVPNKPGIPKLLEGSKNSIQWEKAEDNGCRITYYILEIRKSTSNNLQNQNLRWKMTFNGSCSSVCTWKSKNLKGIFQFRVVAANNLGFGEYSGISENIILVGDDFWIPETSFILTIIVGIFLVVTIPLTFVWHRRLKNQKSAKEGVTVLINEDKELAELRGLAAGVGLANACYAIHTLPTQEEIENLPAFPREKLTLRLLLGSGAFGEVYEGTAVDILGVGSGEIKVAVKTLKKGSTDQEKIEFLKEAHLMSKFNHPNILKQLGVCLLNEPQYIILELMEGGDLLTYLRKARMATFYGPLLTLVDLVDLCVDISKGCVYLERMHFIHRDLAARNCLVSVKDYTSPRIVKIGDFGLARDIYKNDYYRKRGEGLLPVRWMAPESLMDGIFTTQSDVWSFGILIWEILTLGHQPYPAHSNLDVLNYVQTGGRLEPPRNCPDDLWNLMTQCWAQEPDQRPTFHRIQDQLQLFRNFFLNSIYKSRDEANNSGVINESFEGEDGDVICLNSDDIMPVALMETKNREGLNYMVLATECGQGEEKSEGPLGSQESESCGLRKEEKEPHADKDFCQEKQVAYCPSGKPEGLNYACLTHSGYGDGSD

Row | SMILES | kinase still bound, per cent of control [1] [%] | kinase still bound, per cent of control [2] [%] | kinase still bound, per cent of control [3] [%] | kinase still bound, per cent of control [4] [%] | kinase still bound, per cent of control [5] [%] | kinase still bound, per cent of control [6] [%] | kinase still bound, per cent of control [7] [%] | kinase still bound, per cent of control [8] [%] | kinase still bound, per cent of control [9] [%] | kinase still bound, per cent of control [10] [%] | kinase still bound, per cent of control [11] [%] | kinase still bound, per cent of control [12] [%] | kinase still bound, per cent of control [13] [%] | kinase still bound, per cent of control [14] [%] | kinase still bound, per cent of control [15] [%] | kinase still bound, per cent of control [16] [%] | kinase still bound, per cent of control [17] [%] | kinase still bound, per cent of control [18] [%] | kinase still bound, per cent of control [19] [%] | kinase still bound, per cent of control [20] [%] | further results
1 | C=CC(=O)Nc1cccc(Oc2nc(Nc3ccc(N4CCN(C)CC4)cc3OC)ncc2Cl)c1 | 0.7 | 100 | 20 | 27 | 12 | 100 | 0.45 | 17 | 100 | 100 | 4.6 | 0.85 | 0.25 | 100 | 100 | 100 | 100 | 100 | 100 | 100 | kinase still bound, per cent of control [21]: 100%; kinase still bound, per cent of control [22]: 100%; kinase still bound, per cent of control [23]: 100%; kinase still bound, per cent of control [24]: 100%; kinase still bound, per cent of control [25]: 100%; kinase still bound, per cent of control [26]: 16%; kinase still bound, per cent of control [27]: 28%; kinase still bound, per cent of control [28]: 100%; kinase still bound, per cent of control [29]: 100%; kinase still bound, per cent of control [30]: 100%; kinase still bound, per cent of control [31]: 100%; kinase still bound, per cent of control [32]: 12%; kinase still bound, per cent of control [33]: 5%; kinase still bound, per cent of control [34]: 100%; kinase still bound, per cent of control [35]: 100%; kinase still bound, per cent of control [36]: 100%; kinase still bound, per cent of control [37]: 100%; kinase still bound, per cent of control [38]: 100%; kinase still bound, per cent of control [39]: 100%; kinase still bound, per cent of control [40]: 100%
2 | Cc1ccc(NC(=O)c2cccc(C(C)(C)C#N)c2)cc1Nc1ccc2ncn(C)c(=O)c2c1 | 93 | 100 | 100 | 100 | 100 | 100 | 100 | 100 | 84 | 0 | 61 | 78 | 62 | 100 | 2.3 | 100 | 59 | 0 | 9.6 | 92 | kinase still bound, per cent of control [21]: 100%; kinase still bound, per cent of control [22]: 100%; kinase still bound, per cent of control [23]: 100%; kinase still bound, per cent of control [24]: 100%; kinase still bound, per cent of control [25]: 100%; kinase still bound, per cent of control [26]: 100%; kinase still bound, per cent of control [27]: 73%; kinase still bound, per cent of control [28]: 100%; kinase still bound, per cent of control [29]: 100%; kinase still bound, per cent of control [30]: 100%; kinase still bound, per cent of control [31]: 94%; kinase still bound, per cent of control [32]: 100%; kinase still bound, per cent of control [33]: 100%; kinase still bound, per cent of control [34]: 100%; kinase still bound, per cent of control [35]: 100%; kinase still bound, per cent of control [36]: 100%; kinase still bound, per cent of control [37]: 100%; kinase still bound, per cent of control [38]: 91%; kinase still bound, per cent of control [39]: 100%; kinase still bound, per cent of control [40]: 100%

From the kinase profiling compilation of Christmann-Franck et al. (2016)
